System: HG3 cells
Assay: Cell growth curves over 12 days, HG3
Format: cell-based
Experimental: Live cells/mL were counted on days 3, 6, 10, and 12. […] The split factor was calculated at indicated time points by dividing the counted cells/mL by 3E5. Cell growth was extrapolated over time by multiplying the subsequent cell count by the previous split factor. Cell growth is plotted as fold change relative to DMSO-treated cells.

O=C(NC[C@H](O)CN1CCc2ccccc2C1)c1cc(NC2COC2)ncn1 [EPZ015666]
Rep 1 Live Cells [Fold Change] (HG3, 1 nM, day 0): 1 Fold Change
Rep 2 Live Cells [Fold Change] (HG3, 1 nM, day 0): 1 Fold Change
Rep 1 Live Cells [Fold Change] (HG3, 1 nM, day 3): 5.41 Fold Change
Rep 2 Live Cells [Fold Change] (HG3, 1 nM, day 3): 6.183 Fold Change
Rep 1 Live Cells [Fold Change] (HG3, 1 nM, day 6): 37.87 Fold Change
Rep 2 Live Cells [Fold Change] (HG3, 1 nM, day 6): 41.0161 Fold Change
Rep 1 Live Cells [Fold Change] (HG3, 1 nM, day 10): 230.663 Fold Change
Rep 2 Live Cells [Fold Change] (HG3, 1 nM, day 10): 364.018 Fold Change
Rep 1 Live Cells [Fold Change] (HG3, 1 nM, day 12): 1359.37 Fold Change
Rep 2 Live Cells [Fold Change] (HG3, 1 nM, day 12): 2238.71 Fold Change
Rep 1 Live Cells [Fold Change] (HG3, 10 nM, day 0): 1 Fold Change
Rep 2 Live Cells [Fold Change] (HG3, 10 nM, day 0): 1 Fold Change
Rep 1 Live Cells [Fold Change] (HG3, 10 nM, day 3): 6.05 Fold Change
Rep 2 Live Cells [Fold Change] (HG3, 10 nM, day 3): 5.567 Fold Change
Rep 1 Live Cells [Fold Change] (HG3, 10 nM, day 6): 44.77 Fold Change
Rep 2 Live Cells [Fold Change] (HG3, 10 nM, day 6): 36.2761 Fold Change
Rep 1 Live Cells [Fold Change] (HG3, 10 nM, day 10): 317.46 Fold Change
Rep 2 Live Cells [Fold Change] (HG3, 10 nM, day 10): 308.347 Fold Change
Rep 1 Live Cells [Fold Change] (HG3, 10 nM, day 12): 1720.21 Fold Change
Rep 2 Live Cells [Fold Change] (HG3, 10 nM, day 12): 1505.76 Fold Change
Rep 1 Live Cells [Fold Change] (HG3, 100 nM, day 0): 1 Fold Change
Rep 2 Live Cells [Fold Change] (HG3, 100 nM, day 0): 1 Fold Change
Rep 3 Live Cells [Fold Change] (HG3, 100 nM, day 0): 1 Fold Change
Rep 4 Live Cells [Fold Change] (HG3, 100 nM, day 0): 1 Fold Change
Rep 1 Live Cells [Fold Change] (HG3, 100 nM, day 3): 5.29 Fold Change
Rep 2 Live Cells [Fold Change] (HG3, 100 nM, day 3): 5.42 Fold Change
Rep 3 Live Cells [Fold Change] (HG3, 100 nM, day 3): 7.7 Fold Change
Rep 4 Live Cells [Fold Change] (HG3, 100 nM, day 3): 8.317 Fold Change
Rep 1 Live Cells [Fold Change] (HG3, 100 nM, day 6): 34.2087 Fold Change
Rep 2 Live Cells [Fold Change] (HG3, 100 nM, day 6): 34.688 Fold Change
Rep 3 Live Cells [Fold Change] (HG3, 100 nM, day 6): 44.4033 Fold Change
Rep 4 Live Cells [Fold Change] (HG3, 100 nM, day 6): 58.2167 Fold Change
Rep 1 Live Cells [Fold Change] (HG3, 100 nM, day 10): 327.781 Fold Change
Rep 2 Live Cells [Fold Change] (HG3, 100 nM, day 10): 304.216 Fold Change
Rep 3 Live Cells [Fold Change] (HG3, 100 nM, day 10): 521.739 Fold Change
Rep 4 Live Cells [Fold Change] (HG3, 100 nM, day 10): 589.444 Fold Change
Rep 1 Live Cells [Fold Change] (HG3, 100 nM, day 12): 1552.37 Fold Change
Rep 2 Live Cells [Fold Change] (HG3, 100 nM, day 12): 1763.75 Fold Change
Rep 3 Live Cells [Fold Change] (HG3, 100 nM, day 12): 1182.61 Fold Change
Rep 4 Live Cells [Fold Change] (HG3, 100 nM, day 12): 2564.08 Fold Change
Rep 1 Live Cells [Fold Change] (HG3, 1 µM, day 0): 1 Fold Change
Rep 2 Live Cells [Fold Change] (HG3, 1 µM, day 0): 1 Fold Change
Rep 3 Live Cells [Fold Change] (HG3, 1 µM, day 0): 1 Fold Change
Rep 4 Live Cells [Fold Change] (HG3, 1 µM, day 0): 1 Fold Change
Rep 1 Live Cells [Fold Change] (HG3, 1 µM, day 3): 4.22 Fold Change
Rep 2 Live Cells [Fold Change] (HG3, 1 µM, day 3): 4.83 Fold Change
Rep 3 Live Cells [Fold Change] (HG3, 1 µM, day 3): 7.35 Fold Change
Rep 4 Live Cells [Fold Change] (HG3, 1 µM, day 3): 8.167 Fold Change
Rep 1 Live Cells [Fold Change] (HG3, 1 µM, day 6): 27.219 Fold Change
Rep 2 Live Cells [Fold Change] (HG3, 1 µM, day 6): 35.0658 Fold Change
Rep 3 Live Cells [Fold Change] (HG3, 1 µM, day 6): 34.79 Fold Change
Rep 4 Live Cells [Fold Change] (HG3, 1 µM, day 6): 45.4611 Fold Change
Rep 1 Live Cells [Fold Change] (HG3, 1 µM, day 10): 173.707 Fold Change
Rep 2 Live Cells [Fold Change] (HG3, 1 µM, day 10): 145.701 Fold Change
Rep 3 Live Cells [Fold Change] (HG3, 1 µM, day 10): 233.093 Fold Change
Rep 4 Live Cells [Fold Change] (HG3, 1 µM, day 10): 381.873 Fold Change
Rep 1 Live Cells [Fold Change] (HG3, 1 µM, day 12): 608.205 Fold Change
Rep 2 Live Cells [Fold Change] (HG3, 1 µM, day 12): 463.207 Fold Change
Rep 3 Live Cells [Fold Change] (HG3, 1 µM, day 12): 924.602 Fold Change
Rep 4 Live Cells [Fold Change] (HG3, 1 µM, day 12): 1559.32 Fold Change
effect on growth potential (cell growth) (HG3, continuous exposure over 12 days): No changes in growth potential
